Target: T1, XenA-his (Pseudomonas putida, UniProt Q9R9V9)
T1 construct: about 39 kDa, described as monomeric flavoprotein
T1 sequence (Q9R9V9 1-363): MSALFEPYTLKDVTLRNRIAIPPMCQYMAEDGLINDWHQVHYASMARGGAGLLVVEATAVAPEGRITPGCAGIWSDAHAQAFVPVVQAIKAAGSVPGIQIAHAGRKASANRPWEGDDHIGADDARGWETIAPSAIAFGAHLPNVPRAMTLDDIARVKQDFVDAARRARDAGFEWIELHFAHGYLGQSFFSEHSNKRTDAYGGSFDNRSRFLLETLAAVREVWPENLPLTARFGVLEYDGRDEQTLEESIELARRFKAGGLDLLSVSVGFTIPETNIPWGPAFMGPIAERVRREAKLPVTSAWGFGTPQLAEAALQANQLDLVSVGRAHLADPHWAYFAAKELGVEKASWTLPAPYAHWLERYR
Assay: reduction of nitro groups tested with purified enzyme
Format: biochemical

O=[N+]([O-])OCC(CO[N+](=O)[O-])O[N+](=O)[O-] [nitro-glycerin]
reduction of nitro groups tested with purified enzyme: it was able to reduce the NO2 groups present in the substrate
